Converted amounts (≈) assume the structure as drawn. Where two headings read alike, the source gives them in different places.

Series [1] is described as follows: In vitro metabolism: disappearance of parent compound in rat liver microsomes (male, female). The following applies: 5 uM compound, 30 minutes 37° C.; for Fem. Rat (FR) % rem. 30′: female rat liver microsomes; for Male Rat (MR) % rem. 30′: male rat liver microsomes. Format: in vitro ADME. An outline of the steps:
(§1)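 Microsomes from human, rat (male, female), dog and monkey liver incubated with 5 uM compound, 0.5 mg/ml protein and 2 mM NADPH in 50 mM K phosphate, pH 7.4, for 30 min at 37° C. Reaction stopped with acetonitrile; parent compound remaining measured by LC-MS.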
(In general: Microsomes from liver hold many membrane-bound enzymes, among them those of drug oxidation.)

In the next series the target is H S A (Homo sapiens, UniProt P02768). In words: H S A column α. Type of series: in vitro ADME.
H S A, sequence (P02768 25-609): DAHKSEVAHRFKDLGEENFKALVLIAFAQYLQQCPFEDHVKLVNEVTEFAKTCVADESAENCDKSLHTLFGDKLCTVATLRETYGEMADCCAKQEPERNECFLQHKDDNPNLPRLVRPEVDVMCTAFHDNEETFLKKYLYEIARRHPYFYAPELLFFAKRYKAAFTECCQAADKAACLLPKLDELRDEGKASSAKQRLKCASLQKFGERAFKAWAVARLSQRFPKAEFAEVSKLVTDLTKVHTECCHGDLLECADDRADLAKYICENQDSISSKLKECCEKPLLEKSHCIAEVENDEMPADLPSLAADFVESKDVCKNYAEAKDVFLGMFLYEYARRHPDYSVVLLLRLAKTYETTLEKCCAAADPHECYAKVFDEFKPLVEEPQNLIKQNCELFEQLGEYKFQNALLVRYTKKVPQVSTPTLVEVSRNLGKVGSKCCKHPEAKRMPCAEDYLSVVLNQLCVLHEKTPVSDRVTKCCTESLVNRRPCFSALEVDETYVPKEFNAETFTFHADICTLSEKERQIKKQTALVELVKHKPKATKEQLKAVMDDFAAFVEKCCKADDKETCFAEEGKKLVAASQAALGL
In another series the target is T1, rat GnRH receptor (Rattus norvegicus, UniProt P30969).
T1 construct: or rat pituitaries (Pel Freez Biologicals, Rogers, Ark.) were homogenized; tissue Pel Freez Biologicals; host or cells: rat pituitaries (membrane preparation)
T1 sequence (P30969 1-327): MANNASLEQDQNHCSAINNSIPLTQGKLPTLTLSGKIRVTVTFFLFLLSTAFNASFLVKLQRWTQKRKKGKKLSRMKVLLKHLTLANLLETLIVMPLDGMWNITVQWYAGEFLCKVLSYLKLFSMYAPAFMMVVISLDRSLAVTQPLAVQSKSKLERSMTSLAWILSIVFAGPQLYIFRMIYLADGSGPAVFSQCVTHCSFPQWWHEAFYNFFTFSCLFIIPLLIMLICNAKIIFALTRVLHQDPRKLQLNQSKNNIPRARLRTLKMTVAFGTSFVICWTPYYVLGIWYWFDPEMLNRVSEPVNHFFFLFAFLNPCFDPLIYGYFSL
Description: Radioligand binding: inhibition of 125I-GnRH-A binding to rat GnRH receptor (rat pituitary membranes). The following applies: read-out: Ki (nM), Inhibition Binding of 125I-GnRH-A to GnRH Receptors. An outline of the steps:
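Membranes from rat pituitaries, or HEK 293 cells stably expressing mouse or human receptor, incubated 1 hour at room temperature with ~0.04-0.06 nM radioligand (HEPES pH 7.4, EDTA, MgCl2, BSA) and competitor at 0.1-10,000 nM. Bound ligand collected by GF/C filtration and counted; Ki derived from IC50 by Cheng-Prusoff.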

Series [2] can be described thus: Solubility at pH2 and pH6. Format: physicochemical.
The nature of series [3]: In vitro metabolism: disappearance of parent compound in dog liver microsomes. Format: in vitro ADME. The following applies: 5 uM compound, 30 minutes 37° C. The essentials:
as §1

Series [4] is described as follows: Pharmacokinetics in rats (jugular vein cannula, plasma LC-MS). Format: in vivo, Rat. The following applies: for Cmax / half-life / Tmax: rat, plasma, po. The procedure: Rats (male or female, 200-225 g) were prepared with indwelling jugular vein cannula as described by Harms et al., Applied Physiol. 36:391-398 (1974), and allowed to recover overnight with free access to the standard vivarium chow and water. […] […] The blood samples were withdrawn at specific times, plasma was immediately separated and compound extracted with ethyl acetate. The samples were analyzed by LC-MS using 30-90% gradient of ACN in 50 mM ammonium acetate.
The pharmacokinetic parameters were calculated using WinNonlin software (Scientific Consulting Inc.). The bioavailability was calculated as AUCp.o./AUCi.v., where AUCp.o. and AUC i.v. are areas under the plasma concentration-time curve after oral and i.v. administration, respectively.

The mark [5] stands for this setting: pH 6, aqueous buffer, pH6, read-out: Solubility μg/ml pH6.
Where [6] appears, read: female rat, 10 mg/kg as 5 mg/ml solution in 10% DMSO, 10% cremophor, 80% saline (footnote 5).
Setting [7] is: female, 10 mg/kg, female rat, 10 mg/kg as 5 mg/ml solution in 10% DMSO, 10% cremophor, 80% saline (footnote 5), read-out: FR Cmax.
Setting [8] is: female, 10 mg/kg, female rat, 10 mg/kg as 5 mg/ml solution in 10% DMSO, 10% cremophor, 80% saline (footnote 5), read-out: FR T1/2 hr (converted).
Setting [9] is: female, 10 mg/kg, female rat, 10 mg/kg as 5 mg/ml solution in 10% DMSO, 10% cremophor, 80% saline (footnote 5), read-out: FR Tmax hr.

For the compound `COc1nc(OC)c(NC(=O)c2ccc(Cc3cc4c(cc3C)C(C)(C)OC4(C)C)o2)c(OC)n1` [Example A1, 5-(1,1,3,3,6-Pentamethyl-1,3-dihydro-isobenzofuran-5-ylmethyl)-furan-2-carboxylic Acid (2,4,6-trimethoxy-pyrimidin-5-yl)-amide], the “Fem. Rat (FR) % rem. 30′” value in series [1] worked out at 74%. The “Male Rat (MR) % rem. 30′” value in series [1] came out at 11%. The “H S A column α” value on H S A is given as 1. Moreover, on rat GnRH receptor, the Ki is 3.8 nM. The solubility in series [2] (pH 2, simulated gastric fluid, pH2, read-out: Solubility μg/ml pH2) was over 12 µg/mL; in series [2] (setting [5]) it was over 12 µg/mL. Besides, in series [3], the “Dog % rem. 30′” value is given as 22%. The “FR Fp.o.” value in series [4] (female rat, 10 mg/kg as 5 mg/ml solution in 10% DMSO 20% Labrasol, 70% saline (footnote 4)) came out at 37%^4. Besides, the Cmax worked out at 1400 nM in series [4] (female, 10 mg/kg, female rat, 10 mg/kg as 5 mg/ml solution in 10% DMSO 20% Labrasol, 70% saline (footnote 4), read-out: FR Cmax) and 100 nM in series [4] (male, 10 mg/kg, male rat, 10 mg/kg as 5 mg/ml solution in 10% DMSO, 20% Labrasol, 70% saline (footnote 1), read-out: MR Cmax). The half-life in series [4] (female, 10 mg/kg, female rat, 10 mg/kg as 5 mg/ml solution in 10% DMSO 20% Labrasol, 70% saline (footnote 4), read-out: FR T1/2 hr (converted)) was 306 min; in series [4] (male, 10 mg/kg, male rat, 10 mg/kg as 5 mg/ml solution in 10% DMSO, 20% Labrasol, 70% saline (footnote 1), read-out: MR T1/2 hr (converted)), 90 min. The Tmax in series [4] (female, 10 mg/kg, female rat, 10 mg/kg as 5 mg/ml solution in 10% DMSO 20% Labrasol, 70% saline (footnote 4), read-out: FR Tmax hr) was determined as 1 h; in series [4] (male, 10 mg/kg, male rat, 10 mg/kg as 5 mg/ml solution in 10% DMSO, 20% Labrasol, 70% saline (footnote 1), read-out: MR Tmax hr) it was 1 h. In series [4] (male rat, 10 mg/kg as 5 mg/ml solution in 10% DMSO, 20% Labrasol, 70% saline (footnote 1)), the “MR Fp.o.” value came out at 6%^1.
On to `COc1nc(OCCO)nc(OC)c1NC(=O)c1ccc(Cc2cc3c(cc2C)C(C)(C)OC3(C)C)o1` [Example A3, 5-(1,1,3,3,6-Pentamethyl-1,3-dihydro-isobenzofuran-5-ylmethyl)-furan-2-carboxylic acid [2-(2-hydroxy-ethoxy)-4,6-dimethoxy-pyrimidin-5-yl]-amide], for which the “Fem. Rat (FR) % rem. 30′” value in series [1] was 75%. In series [1], the “Male Rat (MR) % rem. 30′” value came to 44%. The “H S A column α” value on H S A turned out to be 0.4. Further, the Ki on rat GnRH receptor is 5.4 nM. The solubility in series [2] (setting [5]) was over 15 µg/mL. The “Dog % rem. 30′” value in series [3] came out at 49%. In addition, in series [4] (setting [6]), the “FR Fp.o.” value came to 60%^5. Also, the Cmax in series [4] (setting [7]) turned out to be 4000 nM; in series [4] (male, 20 mg/kg, male rat, 20 mg/kg as 10 mg/ml in Labrasol/H2O 1/1 (footnote 2), read-out: MR Cmax), 3200 nM; in series [4] (male, 50 mg/kg, male rat, 50 mg/kg in 50 mg/ml PG (footnote 2), read-out: Cmax) it was 3700 nM. Besides, the half-life in series [4] (setting [8]) was 132 min. Further, the Tmax in series [4] (setting [9]) was found to be 1 h; in series [4] (male, 20 mg/kg, male rat, 20 mg/kg as 10 mg/ml in Labrasol/H2O 1/1 (footnote 2), read-out: MR Tmax hr) it was 1 h; in series [4] (male, 50 mg/kg, male rat, 50 mg/kg in 50 mg/ml PG (footnote 2), read-out: Tmax) it was 0.5 h.
`COc1nc(N(C)C)nc(OC)c1NC(=O)c1ccc(Cc2cc3c(cc2C)C(C)(C)CCC3(C)C)o1` [Example B2, 5-(3,5,5,8,8-Pentamethyl-5,6,7,8-tetrahydro-naphthalen-2-ylmethyl)-furan-2-carboxylic Acid (dimethylamino-dimethoxy-pyrimidin-5-yl)-amide]: in series [1], the “Fem. Rat (FR) % rem. 30′” value is on record as 35% and the “Male Rat (MR) % rem. 30′” value is reported as 11%. Further, the “H S A column α” value at H S A is on record as over 30. For the same compound, the Ki on rat GnRH receptor amounted to 11 nM. Further, the solubility in series [2] (setting [5]) came out at 0.4 µg/mL (≈ 0.79 µM). In addition, the “Dog % rem. 30′” value in series [3] was determined as 4%. Besides, the “FR Fp.o.” value in series [4] (female rat, 6 mg/kg as 3 mg/ml solution in 6% DMSO, 6% cremophor, 88% saline (footnote 6)) was 10%^6. Moreover, the Cmax in series [4] (female, 6 mg/kg, female rat, 6 mg/kg as 3 mg/ml solution in 6% DMSO, 6% cremophor, 88% saline (footnote 6), read-out: FR Cmax) is 900 nM. Moreover, in series [4] (female, 6 mg/kg, female rat, 6 mg/kg as 3 mg/ml solution in 6% DMSO, 6% cremophor, 88% saline (footnote 6), read-out: FR T1/2 hr (converted)), the half-life is 342 min. For the same compound, the Tmax in series [4] (female, 6 mg/kg, female rat, 6 mg/kg as 3 mg/ml solution in 6% DMSO, 6% cremophor, 88% saline (footnote 6), read-out: FR Tmax hr) came to 1 h.
Regarding `COc1nc(OC)c(NC(=O)c2ccc(Cc3cc4c(cc3C)C(C)(C)CCC4(C)C)o2)c(OC)n1` [Example C1, 5-(3,5,5,8,8-Pentamethyl-5,6,7,8-tetrahydro-naphthalen-2-ylmethyl)-furan-2-carboxylic Acid (2,4,6-trimethoxy-pyrimidin-5-yl)-amide], in series [1], the “Fem. Rat (FR) % rem. 30′” value was 72% and the “Male Rat (MR) % rem. 30′” value was determined as 1%. Further, the “H S A column α” value at H S A was 13. Besides, the Ki on rat GnRH receptor was 0.7 nM. The solubility in series [2] (setting [5]) came to 1 µg/mL (≈ 2.03 µM). In series [3], the “Dog % rem. 30′” value is given as 0%. Also, the “FR Fp.o.” value in series [4] (setting [6]) is 56%^5. Also, the Cmax in series [4] (setting [7]) came to 800 nM. For the same compound, the half-life in series [4] (setting [8]) is 120 min. Moreover, the Tmax in series [4] (setting [9]) came out at 2 h.

What is called Ki is the dissociation constant of the complex between target and ligand, obtained from inhibition or displacement. As usually defined, the Cmax is the maximum level reached in the sampled fluid or tissue. The term Tmax denotes the time at which the peak concentration occurs.

The values above are taken from patent US6833372B2, “Non-peptide GnRH agents, Pharmaceutical compositions, and methods for their use” (Pfizer, Inc., priority 2002, dated 2004).
